Structures are written as SMILES. Bounds are passed on as bounds.

Format in all cases: functional
Test [1] can be described thus: Cytotoxicity against human KBVIN cells after 72 hrs by SRB assay. To be noted: read-out: ED50 (the source's name).
For a further test, the system named is DU-145. Kind of test: Cytotoxicity against human DU145 cells after 72 hrs by SRB assay. Conditions: DU-145, 72 h, read-out: ED50 (the source's name). In general terms: The SRB assay estimates cell density from bound dye.
A further test concerns SK-BR-3. Nature of the test: Cytotoxicity against human SK-BR-3 cells after 72 hrs by SRB assay. Conditions: SK-BR-3, 72 h, read-out: ED50 (the source's name).
The next test deals with MDA-MB-231. Nature of the test: Cytotoxicity against human MDA-MB-231 cells after 72 hrs by SRB assay. To be noted: MDA-MB-231, 72 h, read-out: ED50 (the source's name).
For another test, the system named is ZR-75-1. Nature of the test: Cytotoxicity against human ZR-75-1 cells after 72 hrs by SRB assay. To be noted: ZR-75-1, 72 h, read-out: ED50 (the source's name).
The test system of a further test is A549. Nature of the test: Cytotoxicity against human A549 cells after 72 hrs by SRB assay. Conditions: A549, 72 h, read-out: ED50 (the source's name).
The next test concerns KB. Nature of the test: Cytotoxicity against human KB cells after 72 hrs by SRB assay. Conditions: read-out: ED50 (the source's name).

Turning to `O=c1cc(N2CCCCC2)c2ccc3ccccc3c2o1`, the EC50 in test [1] was 10.9 µM; in the test with DU-145 it was > 30 µM; in the test on SK-BR-3 it was > 30 µM; in the test on MDA-MB-231, 30 µM; in the test with ZR-75-1, > 30 µM; in the test on A549 it was > 30 µM. The EC50 with KB is > 30 µM.
For the molecule `O=c1cc(Nc2ccccc2Br)c2ccc3ccccc3c2o1`, the EC50 in test [1] was 0.15 µM; in the test with DU-145, 0.23 µM; in the test on SK-BR-3, 0.26 µM; in the test on MDA-MB-231 it was 2.6 µM; with ZR-75-1 it was 0.38 µM; in the test with A549 it was 0.19 µM. Also, the EC50 in the test on KB stood at 0.16 µM.
Turning to `Cc1cccc(Nc2cc(=O)oc3c2ccc2ccccc23)c1`, the EC50 in test [1] came to 0.14 µM; with DU-145 it was 0.14 µM; in the test with SK-BR-3 it was 0.15 µM; in the test with MDA-MB-231, 0.76 µM; in the test with ZR-75-1, 0.08 µM; in the test with A549, 0.15 µM. In addition, the EC50 with KB was found to be 0.14 µM.
As for `COc1cccc(Nc2cc(=O)oc3c2ccc2ccccc23)c1`, the EC50 amounted to 0.17 µM in test [1]; 0.27 µM in the test on DU-145; 0.3 µM with SK-BR-3; 1.3 µM with MDA-MB-231; 0.5 µM with ZR-75-1; 0.29 µM in the test with A549. The EC50 in the test with KB was 0.22 µM.
Turning to `O=c1cc(Nc2cccc(Br)c2)c2ccc3ccccc3c2o1`, the EC50 (in test [1]; in the test on DU-145; with SK-BR-3; with MDA-MB-231; in the test on ZR-75-1; in the test on A549) was > 30 µM in each case. In addition, the EC50 with KB is > 30 µM.
For `O=c1cc(NC2CC2)c2ccc3ccccc3c2o1`, the EC50 was 9.9 µM in test [1]; 9.6 µM with DU-145; 20.8 µM in the test with SK-BR-3; 10 µM with MDA-MB-231; 19.5 µM with ZR-75-1; 29.8 µM in the test on A549. Besides, in the test on KB, the EC50 amounted to 7.8 µM.
For the molecule `O=c1cc(NC2CCCCC2)c2ccc3ccccc3c2o1`, the EC50 was 0.43 µM in test [1]; 0.97 µM with DU-145; 1.3 µM with SK-BR-3; 4.1 µM in the test on MDA-MB-231; 5.8 µM in the test with ZR-75-1; 0.72 µM in the test with A549. For the same molecule, in the test with KB, the EC50 worked out at 0.61 µM.
In the case of `COC(=O)CNc1cc(=O)oc2c1ccc1ccccc12`, the EC50 in test [1] came to 3.1 µM; in the test on DU-145, 4.1 µM; in the test on SK-BR-3, 3.8 µM; in the test on MDA-MB-231, 4.2 µM; in the test with ZR-75-1 it was 6.7 µM; in the test with A549, 4.7 µM. Besides, the EC50 in the test on KB turned out to be 4.6 µM.
In the case of `O=c1cc(Nc2ccc(Br)cc2)c2ccc3ccccc3c2o1`, the EC50 worked out at 0.47 µM in test [1]; 0.52 µM in the test with DU-145; 0.5 µM in the test on SK-BR-3; 6.8 µM with MDA-MB-231; 3.1 µM with ZR-75-1; 0.72 µM in the test with A549. In the test on KB, the EC50 was determined as 0.41 µM.
For `Cc1ccccc1Nc1cc(=O)oc2c1ccc1ccccc12`, the EC50 is 0.84 µM in test [1]; 1.3 µM in the test on DU-145; 1.6 µM in the test with SK-BR-3; 8.3 µM in the test with MDA-MB-231; 4.3 µM in the test on ZR-75-1; 1.3 µM in the test with A549. Moreover, the EC50 in the test on KB came to 2.1 µM.
On to `COc1ccccc1Nc1cc(=O)oc2c1ccc1ccccc12`, for which the EC50 came to 0.47 µM in test [1]; 0.76 µM in the test on DU-145; 0.64 µM in the test with SK-BR-3; 7.3 µM with MDA-MB-231; 4.7 µM with ZR-75-1; 0.6 µM in the test on A549. In addition, the EC50 in the test with KB was 0.5 µM.
As to `CCc1cccc2c1ccc1c(NCC(=O)N(C)OC)cc(=O)oc12`, the EC50 in test [1] is 19.7 µM; with DU-145 it was 16.2 µM; in the test on SK-BR-3, 17.4 µM; in the test with MDA-MB-231, > 30 µM; in the test on ZR-75-1 it was 18.2 µM; in the test with A549, 17.6 µM. In the test with KB, the EC50 came to 21.5 µM.
Turning to `O=c1cc(Nc2cccc3ccccc23)c2ccc3ccccc3c2o1`, the EC50 in test [1] is 0.2 µM; in the test with DU-145, 0.3 µM; with SK-BR-3, 0.32 µM; in the test with MDA-MB-231, 0.47 µM; in the test with ZR-75-1, 0.53 µM; in the test with A549 it was 0.25 µM. In the test with KB, the EC50 turned out to be 0.27 µM.
As for `CCCN(CCC)c1cc(=O)oc2c1ccc1ccccc12`, the EC50 was 20.8 µM in test [1]; > 30 µM in the test on DU-145; > 30 µM in the test with SK-BR-3; 30 µM in the test on MDA-MB-231; > 30 µM in the test on ZR-75-1; > 30 µM with A549. Also, the EC50 with KB is > 30 µM.
`CON(C)C(=O)CNc1cc(=O)oc2c1ccc1ccccc12`: the EC50 in test [1] turned out to be 3 µM; with DU-145 it was 3.2 µM; in the test with SK-BR-3, 4.5 µM; in the test on MDA-MB-231, 5.8 µM; in the test on ZR-75-1, 0.48 µM; with A549 it was 3.1 µM. In the test with KB, the EC50 was determined as 2.2 µM.
Turning to `O=c1cc(Nc2ccccc2)c2ccc3ccccc3c2o1`, the EC50 worked out at 0.5 µM in test [1]; 0.82 µM in the test with DU-145; 1.6 µM in the test on SK-BR-3; 0.27 µM in the test on MDA-MB-231; 0.91 µM in the test with ZR-75-1; 0.98 µM with A549. Moreover, in the test with KB, the EC50 stood at 0.44 µM.
For `Cc1ccc(Nc2cc(=O)oc3c2ccc2ccccc23)cc1`, the EC50 in test [1] worked out at 0.17 µM; in the test with DU-145, 0.37 µM; in the test on SK-BR-3, 0.38 µM; in the test with MDA-MB-231, 15.3 µM; with ZR-75-1, 13 µM; with A549, 0.25 µM. In the test on KB, the EC50 is 0.22 µM.
`CNc1cc(=O)oc2c1ccc1ccccc12`: the EC50 (in test [1]; in the test with DU-145; in the test on SK-BR-3; in the test with MDA-MB-231; with ZR-75-1; with A549) was > 30 µM in each case. The EC50 with KB was > 30 µM.
As for `CCCNc1cc(=O)oc2c1ccc1ccccc12`, the EC50 was 10.6 µM in test [1]; > 30 µM in the test on DU-145; > 30 µM in the test with SK-BR-3; 19.8 µM in the test with MDA-MB-231; > 30 µM with ZR-75-1; > 30 µM with A549. Besides, the EC50 in the test on KB is > 30 µM.
For the molecule `CCc1ccc(Nc2cc(=O)oc3c2ccc2ccccc23)cc1`, the EC50 in test [1] amounted to 0.18 µM; in the test with DU-145 it was 0.3 µM; in the test with SK-BR-3, 0.3 µM; in the test with MDA-MB-231 it was 1.4 µM; in the test on ZR-75-1 it was 0.79 µM; with A549, 0.2 µM. Moreover, in the test on KB, the EC50 amounted to 0.28 µM.
With `COc1ccc(Nc2cc(=O)oc3c2ccc2ccccc23)cc1`, the EC50 in test [1] stood at 0.13 µM; in the test with DU-145, 0.11 µM; in the test on SK-BR-3, 0.13 µM; in the test with MDA-MB-231, 0.02 µM; in the test on ZR-75-1, 0.01 µM; with A549 it was 0.17 µM. Moreover, the EC50 in the test with KB stood at 0.11 µM.
Consider `O=c1cc(Nc2ccc(F)cc2)c2ccc3ccccc3c2o1`, for which the EC50 was 0.51 µM in test [1]; 0.78 µM in the test with DU-145; 1.1 µM with SK-BR-3; > 30 µM with MDA-MB-231; 3.2 µM in the test on ZR-75-1; 0.81 µM in the test on A549. For the same molecule, in the test with KB, the EC50 was found to be 1.2 µM.
Consider `O=c1cc(N2CCOCC2)c2ccc3ccccc3c2o1`, for which the EC50 in test [1] was > 30 µM; in the test on DU-145, > 30 µM; in the test with SK-BR-3, > 30 µM; with MDA-MB-231, > 30 µM; in the test with ZR-75-1, 3.9 µM; in the test with A549, > 30 µM. For the same molecule, the EC50 with KB is > 30 µM.
Consider `Cc1cccc2c1ccc1c3occ(C)c3c(=O)oc21`, for which the EC50 in test [1] is > 30 µM; in the test on DU-145 it was > 30 µM; in the test on SK-BR-3, 0.95 µM; with MDA-MB-231, > 30 µM; in the test on ZR-75-1, 0.95 µM; in the test on A549, > 30 µM. Further, the EC50 with KB is > 30 µM.
